Assay results reported in PMC8457121, “From Kinase Inhibitors to Multitarget Ligands as Powerful Drug Leads for Alzheimer's Disease using Protein‐Templated Synthesis” (Angewandte Chemie (International Ed. in English), 2021).

How the values were obtained:
BACE1 [1] = target: T1, BACE1 (Homo sapiens, UniProt P56817); test: Evaluation of BACE inhibitors kinetics (Lineweaver-Burk); format: biochemical; details: different concentrations of substrate and compound
Experimental: enzyme concentration (1 U/mL). Inhibitor screening at 10 μM. The mixture was incubated for 60 min at 25 °C under dark conditions and then stopped with 2.5 M sodium acetate. Fluorescence was measured with a FLUOstar Optima (BMG
Labtechnologies GmbH, Offenburg, Germany) microplate reader at 545 nm excitation and 585 nm emission.
Evaluation of BACE Inhibitors Kinetics. To evaluate the mechanism of BACE1 inhibition of the compounds, substrate-dependent kinetic experiments were performed. BACE activity were measured at five different concentrations substrate (1000 -62,5 µM) in the absence or presence of the select inhibitor at two different concentrations. The results are presented as double reciprocal Lineweaver−Burk plots (1/V vs 1/[S]) Figure S1.
Cell culture and treatments. SK-N-MC cells stably expressing the human isoform APP695 (SK-APP cell line D1; SKAPP-D1) were generated by transfection of SK-N-MC cells with a pCDNA3-APP expression vector, and kindly provided by Dr. MJ Bullido. These cells were cultured in DMEM (Thermo Fisher) medium supplemented with 10% FBS (Thermo Fisher), 1 mM glutamine (Sigma-Aldrich), and 100 unit/ml penicillin (Lonza) and […] streptomycin (Lonza).
Cell cultures were maintained in a 5% CO2, humidified atmosphere at 37 °C. […]

LRRK2 = target: T2, LRRK2 (Homo sapiens, UniProt Q5S007); test: LRRK2 inhibition enzymatic assay (Adapta, ThermoFisher); format: biochemical
T2 construct: purchased ThermoFisher (assay run by the company)

BACE1 [2] = target: T1, BACE1; test: In situ click chemistry with BACE1 as template (LC/MS-SIM); details: BACE1 0.5 μM, reagents 100 μM, 24 h, room temperature, sodium acetate pH 4.5
Experimental: confirmed by molecular weight. Control experiments in the absence of BACE1 were set up every time the reactions were performed. Experiment with the presence of BSA (1 mg mL−1) instead of the BACE1 enzyme was performed for […]
LRRK2 inhibition enzymatic assay. The LRRK2 inhibitors were evaluated by the ThermoFisher company under the following Adapta Assay. The assay itself can be divided into two phases: a kinase reaction phase, and an ADP detection phase. In the kinase reaction phase, all components required for the kinase reaction are added to the well, and the reaction is allowed to incubate for 60 minutes. After the reaction, a detection solution consisting of a europium labeled anti-ADP antibody, an Alexa Fluor™ 647 labeled ADP tracer, and EDTA (to stop the kinase reaction) is added to the assay well. ADP formed by the kinase reaction (in the absence of an inhibitor) will displace the Alexa Fluor 647 labeled ADP tracer from the antibody, resulting in a decrease in the TR-FRET signal. In the presence of an inhibitor, the amount of ADP formed by the kinase reaction is reduced, and the resulting intact antibodytracer interaction results in a high TR-FRET signal. ADP formation is determined by calculating the emission ratio from […]
The 2X LRRK2 / ERM (LRRKtide) mixture is prepared in 50 mM Tris pH 8.5, […]
Reaction consists of 3.75 - 70 ng LRRK2 and 200 μM ERM (LRRKtide) in 25 mM […]
NaN3. […]

PAMPA-BBB test = format: in vitro ADME; details: PBS pH 7.4 with 5% DMSO
Experimental: CNS penetration: in vitro PAMPA-BBB test. Prediction of the brain penetration was evaluated using a parallel artificial membrane permeability assay (PAMPA).1
Nine quality control compounds (mentioned below) of know BBB permeability
were included in each experiment to validate the analysis set.2 Commercial drugs
dissolved in 250 µL of DMSO (Sigma-Aldrich). 25 µL of these compound stock
solutions were taken and 225 µL of DMSO and 4750 µL of PBS pH 7.4 buffer
were added to reach 5% of DMSO concentration in the experiment and a final
compound concentration in the range of 0.2 to 1.1 mM. Compounds to be
determined their ability to pass the brain barrier (0.5-1 mg) were dissolved in 250
µL of DMSO and 4750 µL of PBS pH 7.4 was carefully added to afford a final
compound concentration in the range of 0.2 to 1.1 mM. Solutions were filtered
using filter PDVF membrane units (diameter 30 mm, pore size 0.45 μm, Symta).
10 µL of each solution were taken and diluted 10-fold with PBS/DMSO (95/5) for
HPLC-MS analysis. The acceptor 96-well plate (Multiscreen®, catalog no.
MAMCS9610, Millipore) was filled with 180 µL of PBS/DMSO (95/5). The donor
96-well plate (Multiscreen® IP Sterile Plate PDVF membrane, pore size is 0.45
M, catalog no. MAIPS4510, Millipore) was coated with 4 µL 20 mg·mL-1 of
for 5 min and then 180 µL of each compound solution was added. Then the donor
plate was put on the acceptor plate and kept for 2.5 h at room temperature. After
incubation, samples were collected from the acceptor plate and diluted 10-fold
with PBS/DMSO (95/5) for HPLC-MS analysis and compared to HPLC-MS of
initial solutions. Absorbance peak of each compound was determined by MS
detection and was used to calculate the concentration of compounds and
Every sample was analysed in two independent
runs. HPLC-MS was performed using a HPLC-MS equipment from Thermo
Fisher coupled to a Finnigan TM LXQ TM detector. Each compound was
analysed using a Sunfire column C18, 3.5 μm (50 mm x 4.6 mm) and acetonitrile
and Milli-Q water (with 0.1% formic acid) as mobile phase. The standard gradient

BACE1 [3] = target: T1, BACE1; test: BACE1 enzymatic assay (FRET); format: biochemical
Experimental: BACE1 enzymatic assay. BACE1 in vitro assays were carried out using FRET.
μM) carrying the Swedish mutation and containing a rhodamine as a fluorescence donor and a quencher acceptor at each end was used. The intact substrate is weakly fluorescent and becomes highly fluorescent upon enzymatic cleavage.
The assays were conducted in 50 mM sodium acetate buffer, pH 4.5, in a final

T1 sequence (P56817 46-501): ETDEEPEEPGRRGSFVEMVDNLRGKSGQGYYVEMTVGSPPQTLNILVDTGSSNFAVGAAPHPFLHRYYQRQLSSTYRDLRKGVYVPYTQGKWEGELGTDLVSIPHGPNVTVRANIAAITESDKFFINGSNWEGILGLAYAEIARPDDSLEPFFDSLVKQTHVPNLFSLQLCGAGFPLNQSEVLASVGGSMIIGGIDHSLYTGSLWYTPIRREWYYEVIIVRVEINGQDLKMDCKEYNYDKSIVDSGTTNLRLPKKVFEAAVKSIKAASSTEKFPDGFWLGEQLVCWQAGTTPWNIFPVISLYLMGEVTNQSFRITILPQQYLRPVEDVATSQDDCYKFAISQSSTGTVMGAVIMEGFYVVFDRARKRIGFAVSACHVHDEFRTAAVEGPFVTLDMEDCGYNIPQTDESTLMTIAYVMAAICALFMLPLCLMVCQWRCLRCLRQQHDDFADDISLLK
T2 sequence (Q5S007 whole entry): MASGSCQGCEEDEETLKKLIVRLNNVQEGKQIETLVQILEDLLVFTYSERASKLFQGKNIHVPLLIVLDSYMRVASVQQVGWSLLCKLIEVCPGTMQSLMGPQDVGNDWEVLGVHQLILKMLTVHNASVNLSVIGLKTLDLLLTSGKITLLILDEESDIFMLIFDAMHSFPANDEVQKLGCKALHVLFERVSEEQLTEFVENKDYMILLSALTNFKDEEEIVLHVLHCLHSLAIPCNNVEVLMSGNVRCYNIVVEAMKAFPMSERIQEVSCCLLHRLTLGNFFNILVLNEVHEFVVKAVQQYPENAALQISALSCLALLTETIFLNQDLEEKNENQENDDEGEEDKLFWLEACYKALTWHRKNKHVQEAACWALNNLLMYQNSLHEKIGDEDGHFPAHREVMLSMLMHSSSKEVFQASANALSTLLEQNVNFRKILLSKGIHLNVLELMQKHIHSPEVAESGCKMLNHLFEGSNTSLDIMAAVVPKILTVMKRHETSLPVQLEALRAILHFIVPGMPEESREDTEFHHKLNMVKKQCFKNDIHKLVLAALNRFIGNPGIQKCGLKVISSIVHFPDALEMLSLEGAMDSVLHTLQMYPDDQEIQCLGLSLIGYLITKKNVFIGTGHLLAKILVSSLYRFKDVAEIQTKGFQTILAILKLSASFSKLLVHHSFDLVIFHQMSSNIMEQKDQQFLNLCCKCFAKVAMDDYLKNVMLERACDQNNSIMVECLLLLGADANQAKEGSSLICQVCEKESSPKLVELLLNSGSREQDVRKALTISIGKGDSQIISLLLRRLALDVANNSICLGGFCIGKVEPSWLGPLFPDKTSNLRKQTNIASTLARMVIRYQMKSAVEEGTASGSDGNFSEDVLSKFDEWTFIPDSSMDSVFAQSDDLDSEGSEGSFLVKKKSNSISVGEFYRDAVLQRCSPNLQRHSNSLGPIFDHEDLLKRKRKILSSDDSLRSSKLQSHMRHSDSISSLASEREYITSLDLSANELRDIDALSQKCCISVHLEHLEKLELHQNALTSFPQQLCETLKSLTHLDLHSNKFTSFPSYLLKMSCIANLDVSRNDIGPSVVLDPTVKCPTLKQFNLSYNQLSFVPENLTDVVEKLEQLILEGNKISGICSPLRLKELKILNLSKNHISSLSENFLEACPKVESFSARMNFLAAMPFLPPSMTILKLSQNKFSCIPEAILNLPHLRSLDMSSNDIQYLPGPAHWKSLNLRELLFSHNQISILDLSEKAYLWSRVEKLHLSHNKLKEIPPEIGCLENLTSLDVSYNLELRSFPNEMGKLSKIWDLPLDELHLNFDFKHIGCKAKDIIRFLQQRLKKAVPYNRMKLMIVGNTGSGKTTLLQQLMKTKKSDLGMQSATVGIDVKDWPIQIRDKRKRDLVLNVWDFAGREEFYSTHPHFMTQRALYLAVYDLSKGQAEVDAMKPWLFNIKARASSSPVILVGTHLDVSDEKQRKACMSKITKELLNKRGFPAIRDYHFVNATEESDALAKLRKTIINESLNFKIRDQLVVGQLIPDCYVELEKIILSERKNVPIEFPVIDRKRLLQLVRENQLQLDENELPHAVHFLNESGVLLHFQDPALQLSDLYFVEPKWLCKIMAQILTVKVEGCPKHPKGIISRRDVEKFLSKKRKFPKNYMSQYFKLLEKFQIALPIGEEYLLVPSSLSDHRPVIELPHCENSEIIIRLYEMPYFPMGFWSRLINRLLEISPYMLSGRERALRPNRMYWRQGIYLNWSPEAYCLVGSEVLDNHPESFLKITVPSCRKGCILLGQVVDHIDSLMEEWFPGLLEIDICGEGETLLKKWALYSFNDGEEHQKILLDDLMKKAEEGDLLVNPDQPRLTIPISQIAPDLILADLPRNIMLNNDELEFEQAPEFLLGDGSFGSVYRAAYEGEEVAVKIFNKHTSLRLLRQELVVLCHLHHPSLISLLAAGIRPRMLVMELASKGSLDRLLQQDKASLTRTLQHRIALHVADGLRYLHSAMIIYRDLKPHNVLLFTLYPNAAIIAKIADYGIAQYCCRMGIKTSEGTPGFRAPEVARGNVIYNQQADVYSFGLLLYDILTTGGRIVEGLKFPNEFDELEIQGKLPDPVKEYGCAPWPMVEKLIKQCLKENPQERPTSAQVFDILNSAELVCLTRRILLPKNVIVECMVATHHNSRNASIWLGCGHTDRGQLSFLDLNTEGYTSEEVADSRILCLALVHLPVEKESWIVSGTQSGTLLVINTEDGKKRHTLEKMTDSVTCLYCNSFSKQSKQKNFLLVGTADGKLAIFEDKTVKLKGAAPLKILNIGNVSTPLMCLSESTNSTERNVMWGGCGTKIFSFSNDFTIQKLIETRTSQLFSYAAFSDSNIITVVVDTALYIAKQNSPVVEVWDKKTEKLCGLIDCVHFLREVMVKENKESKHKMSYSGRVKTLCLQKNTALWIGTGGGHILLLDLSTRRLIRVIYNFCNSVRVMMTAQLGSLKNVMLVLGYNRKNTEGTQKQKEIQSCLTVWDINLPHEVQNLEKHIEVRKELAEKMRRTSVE

- Behavior in the inhibition of BACE1 (Lineweaver–Burk double reciprocal plot) (BACE1 [1]): substrate‐competitive
- IC50 (LRRK2): 1830 nM
- melting point: 280 to 282 °C (dec.)
- Triazole formation from building blocks in presence of BACE1 (BACE1 [2]): observed
- Solubility in the conditions of the PAMPA experiment (PAMPA-BBB test): insoluble
- IC50 (BACE1 [3]): 3720 nM
SMILES: O=C(Nc1nc2ccccc2s1)c1ccc(Cn2cc(COc3ccc(C(=O)Nc4nc5ccccc5s4)cc3)nn2)cc1 [compound 8]
